These results are taken from PMC2248166, “Quantitative peptide binding motifs for 19 human and mouse MHC class I molecules derived using positional scanning combinatorial peptide libraries” (Immunome Research, 2008).

Among the targets are H-2 D^b (Mus musculus, UniProt P01899); HLA B*5301 (Homo sapiens, UniProt P01889, A329T/A93T/A95T/C349S/D201E/D98Y/E176V/E187L/E204Q/E69T/G107R/I218V/K202T/L105A/L119I/N104I/Q94N/R106L/R155S/R180L/S101N/S121R/S35A/S48A/T118I/V127L/V306I/V36M/Y140S/Y91F); H-2 D^d (Mus musculus, UniProt P01900); HLA B*5801 (Homo sapiens, UniProt P01889, A329T/C349S/D201E/D98Y/E176V/E187L/E204Q/E69T/G107R/I218V/I90N/K202T/L105A/L119I/N104I/N87E/Q89R/Q94S/R106L/R155S/R180L/R86G/S101N/S121R/S35A/S48A/T118I/V127L/V306I/V36M/Y140S/Y91M); HLA B*3501 (Homo sapiens, UniProt P01889, A329T/A93T/A95T/C349S/D201E/D98Y/E176V/E187L/E204Q/E69T/I218V/K202T/L119I/Q94N/R155S/R180L/S121R/S35A/S48A/T118I/V127L/V306I/V36M/Y140S/Y91F); HLA A*6802 (Homo sapiens, UniProt P04439, A269V/D140Y/D185E/E176V/E277Q/E87N/F33Y/G231S/I121R/I166T/I218V/L180W/L300P/L318F/N151K/P208A/P217A/Q86R/R138H/R169H/S129P/T345S/V36M); HLA B*5802 (Homo sapiens, UniProt P01889, A329T/C349S/D201E/D98Y/E176V/E187L/E204Q/E69T/G107R/I218V/I90N/K202T/L105A/N104I/N87E/Q89R/Q94S/R106L/R155S/R180L/R86G/S101N/S121W/S35A/S48A/V127L/V306I/V36M/Y140S/Y91M); H-2 K^k (Mus musculus, UniProt P04223); HLA B*5401 (Homo sapiens, UniProt P01889, A329T/C349S/D138N/D201E/E176V/E187T/E204Q/E69G/I76V/K202T/L119W/R155S/R180L/S121T/S35A/S48A/V127L/V306I/V36M/Y140L); HLA B*5101 (Homo sapiens, UniProt P01889, A329T/A93T/A95T/C349S/D138N/D201E/D98Y/E187L/E204Q/E69T/G107R/I218V/K202T/L105A/L119W/N104I/Q94N/R106L/R155S/R180L/S101N/S121T/S35A/S48A/V306I/V36M/Y195H/Y91F); H-2 K^d (Mus musculus, UniProt P01902).

Assay type in all cases: binding
A further test addresses HLA B*1501 (Homo sapiens, UniProt P01889, A329T/A93T/A95T/C349S/D201E/D98Y/E187L/E204Q/E69M/E70A/K202T/N87E/Q94N/R155S/R180W/S121R/S35A/S48A/V306I/V36M/Y140S/Y91S). The test is described as follows: biochemical.
In the next test the target is HLA B*0801 (Homo sapiens, UniProt P01889, A93T/A95T/D138N/E176V/E187T/K202T/Q94N/R180D/S35A/V36M/Y33D/Y91F). The test is described as follows: biochemical.
The target of another test is HLA B*1503 (Homo sapiens, UniProt P01889, A329T/A93T/A95T/C349S/D201E/D98Y/E187L/E204Q/K202T/N87E/Q94N/R155S/R180L/S121R/S35A/V306I/V36M/Y140S/Y91S). The test can be described thus: biochemical.
Another test deals with HLA A*3001 (Homo sapiens, UniProt P04439, D140H/D185E/E176W/F33S/G80R/H175R/K168Q/R138E/R41S). The test can be described thus: biochemical.
The target in a further test is HLA A*3201 (Homo sapiens, UniProt P04439, A270S/D101S/D185E/E176V/E277Q/F133L/G103R/G107R/G231S/H175R/I121M/I218V/I322F/K168Q/L105A/L300P/L318F/M331R/P208A/P217A/Q94H/R106L/R138Q/S129P/T104I/T323A/T345S/V100E/V321M/V358M). The test can be described thus: biochemical.

Chain of H-2 D^d (P01900 whole entry, looked up): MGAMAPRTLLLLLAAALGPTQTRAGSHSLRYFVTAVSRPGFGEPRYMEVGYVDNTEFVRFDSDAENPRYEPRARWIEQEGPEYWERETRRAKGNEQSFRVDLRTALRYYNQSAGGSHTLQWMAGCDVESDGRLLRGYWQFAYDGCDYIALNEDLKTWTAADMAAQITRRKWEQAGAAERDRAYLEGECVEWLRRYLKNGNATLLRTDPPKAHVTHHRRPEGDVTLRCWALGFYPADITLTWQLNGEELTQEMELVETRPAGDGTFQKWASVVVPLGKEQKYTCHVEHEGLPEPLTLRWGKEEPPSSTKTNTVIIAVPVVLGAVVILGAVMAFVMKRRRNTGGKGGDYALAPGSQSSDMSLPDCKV
Chain of H-2 K^k (P01887 21-119): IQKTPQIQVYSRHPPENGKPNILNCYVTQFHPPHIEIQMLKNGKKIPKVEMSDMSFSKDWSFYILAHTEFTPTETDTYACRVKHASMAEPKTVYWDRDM
Chain of H-2 K^k (P04223 22-369): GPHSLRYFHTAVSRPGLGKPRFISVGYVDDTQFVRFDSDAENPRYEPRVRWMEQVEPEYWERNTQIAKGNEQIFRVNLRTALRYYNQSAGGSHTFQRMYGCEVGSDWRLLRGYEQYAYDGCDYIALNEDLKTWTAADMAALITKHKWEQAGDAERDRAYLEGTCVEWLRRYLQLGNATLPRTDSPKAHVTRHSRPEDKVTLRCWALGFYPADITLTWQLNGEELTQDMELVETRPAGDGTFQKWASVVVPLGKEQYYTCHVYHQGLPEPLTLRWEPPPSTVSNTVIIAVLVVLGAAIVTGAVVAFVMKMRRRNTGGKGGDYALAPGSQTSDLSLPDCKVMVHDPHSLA
Chain of H-2 D^b (P01887 21-119): as the sequence (P01887 21-119) above
Chain of H-2 D^b (P01899 25-362): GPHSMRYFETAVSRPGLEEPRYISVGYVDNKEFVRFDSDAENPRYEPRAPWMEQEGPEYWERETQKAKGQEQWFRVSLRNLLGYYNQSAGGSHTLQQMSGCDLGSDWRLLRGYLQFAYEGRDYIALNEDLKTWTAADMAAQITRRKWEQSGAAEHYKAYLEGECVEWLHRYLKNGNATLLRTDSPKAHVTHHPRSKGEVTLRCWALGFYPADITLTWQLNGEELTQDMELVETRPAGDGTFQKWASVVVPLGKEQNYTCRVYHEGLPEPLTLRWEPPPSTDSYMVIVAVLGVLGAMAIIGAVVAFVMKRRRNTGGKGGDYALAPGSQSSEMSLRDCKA
Chain of H-2 K^d (P01887 21-119): as the sequence (P01887 21-119) above
Chain of H-2 K^d (P01902 22-368): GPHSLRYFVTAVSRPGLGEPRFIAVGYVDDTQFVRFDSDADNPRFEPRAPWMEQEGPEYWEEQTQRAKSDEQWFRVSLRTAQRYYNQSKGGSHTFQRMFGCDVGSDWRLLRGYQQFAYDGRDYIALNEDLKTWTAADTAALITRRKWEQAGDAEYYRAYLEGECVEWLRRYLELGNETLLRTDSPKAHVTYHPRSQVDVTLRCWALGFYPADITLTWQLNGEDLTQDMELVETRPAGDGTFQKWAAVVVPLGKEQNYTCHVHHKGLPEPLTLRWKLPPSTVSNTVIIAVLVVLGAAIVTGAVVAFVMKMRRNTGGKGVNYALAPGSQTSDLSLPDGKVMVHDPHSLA

Regarding XXXXXSXXX [3064.0116], the “Normalized average relative binding affinity(ARB)” value on HLA B*1501 worked out at 0.35; on H-2 D^b, 0.70; on HLA B*5301, 0.17; at H-2 D^d, 0.63; at HLA B*5801, 0.45; on HLA B*3501 it was 0.33. The “Normalized average relative binding affinity(ARB)” value turned out to be 0.57 on HLA A*6802; 0.052 on HLA B*0801; 0.51 on HLA B*1503; 0.055 on HLA B*5802; 0.70 on H-2 K^k; 0.18 at HLA B*5401. Further, the “Normalized average relative binding affinity(ARB)” value was found to be 0.32 on HLA B*5101, 0.44 at HLA A*3001, 0.25 on H-2 K^d and 0.80 on HLA A*3201.

Consider XXXXXTXXX [3064.0117], for which the “Normalized average relative binding affinity(ARB)” value on HLA B*1501 worked out at 0.55; on H-2 D^b, 0.55; at HLA B*5301 it was 0.30; at H-2 D^d, 1.0; at HLA B*5801, 0.72; at HLA B*3501 it was 0.16. Besides, the “Normalized average relative binding affinity(ARB)” value was 0.84 on HLA A*6802; 0.068 on HLA B*0801; 0.79 at HLA B*1503; 0.17 at HLA B*5802; 0.70 on H-2 K^k; 0.32 on HLA B*5401. Further, the “Normalized average relative binding affinity(ARB)” value on HLA B*5101 is reported as 0.32; on HLA A*3001 it was 0.27; on H-2 K^d, 0.26; at HLA A*3201, 0.77.

Turning to XXXXXVXXX [3064.0118], the “Normalized average relative binding affinity(ARB)” value at HLA B*1501 was found to be 0.37; at H-2 D^b, 0.51; on HLA B*5301, 0.65; on H-2 D^d it was 0.63; at HLA B*5801, 0.72; at HLA B*3501, 0.34. Also, the “Normalized average relative binding affinity(ARB)” value at HLA A*6802 came to 0.60; on HLA B*0801, 0.077; on HLA B*1503, 0.78; at HLA B*5802, 0.26; on H-2 K^k it was 0.59; at HLA B*5401, 0.17. Also, the “Normalized average relative binding affinity(ARB)” value at HLA B*5101 is on record as 0.20; on HLA A*3001 it was 0.22; at H-2 K^d, 0.32; on HLA A*3201 it was 1.0.

Regarding XXXXXWXXX [3064.0119], the “Normalized average relative binding affinity(ARB)” value on HLA B*1501 is 0.36; at H-2 D^b, 1.0; on HLA B*5301, 0.36; on H-2 D^d it was 0.77; at HLA B*5801, 0.21; on HLA B*3501, 0.99. For the same sequence, the “Normalized average relative binding affinity(ARB)” value on HLA A*6802 is given as 0.44; on HLA B*0801, 0.046; on HLA B*1503, 0.37; on HLA B*5802, 0.29; at H-2 K^k it was 0.49; at HLA B*5401, 0.18. Further, the “Normalized average relative binding affinity(ARB)” value was 0.10 at HLA B*5101, 0.14 at HLA A*3001, 0.29 on H-2 K^d and 0.26 on HLA A*3201.

For XXXXXXAXX [3064.0121], the “Normalized average relative binding affinity(ARB)” value amounted to 0.69 on HLA B*1501; 0.65 on H-2 D^b; 0.31 at HLA B*5301; 0.037 on H-2 D^d; 0.0045 on HLA B*5801; 0.22 on HLA B*3501. Besides, the “Normalized average relative binding affinity(ARB)” value is listed as 0.37 on HLA A*6802; 0.44 at HLA B*0801; 0.0014 on HLA B*1503; 0.032 on HLA B*5802; 0.12 at H-2 K^k; 0.45 at HLA B*5401. For the same sequence, the “Normalized average relative binding affinity(ARB)” value at HLA B*5101 is 0.24; at HLA A*3001, 0.12; at H-2 K^d, 0.17; at HLA A*3201 it was 0.20.

For the sequence XXXXXXCXX [3064.0122], the “Normalized average relative binding affinity(ARB)” value at HLA B*1501 came out at 0.78; at H-2 D^b, 0.28; on HLA B*5301 it was 0.17; at H-2 D^d it was 0.048; on HLA B*5801, 0.082; on HLA B*3501, 0.18. Besides, the “Normalized average relative binding affinity(ARB)” value worked out at 0.11 at HLA A*6802; 0.44 at HLA B*0801; 0.094 at HLA B*1503; 0.024 at HLA B*5802; 0.094 at H-2 K^k; 0.16 on HLA B*5401. In addition, the “Normalized average relative binding affinity(ARB)” value is 0.28 on HLA B*5101, 0.21 on HLA A*3001, 0.12 at H-2 K^d and 0.11 at HLA A*3201.
